Measurements as given in patent publication US6995150B2, “Pharmaceutical compositions and uses for androst-5-ene-3β, 17β-diol” (Endorecherche, Inc., priority 1998, dated 2006).
Entries after “also recorded” stand apart in the source; their conditions may differ.

What was measured:
[1] = system: ovariectomized rats; assay: Uterine weight in ovariectomized rats, percutaneous administration twice daily for 7 days; assay type: in vivo, rat; conditions: for effect on uterine weight: percutaneous; for maximal reversal of the inhibitory effect of ovariectomy on uterine weight: 100 mg percutaneous twice daily, 7 days
Experimental: (§1) Intact animals are used as additional controls. The compounds were dissolved in 50% ethanol-50% propylene glycol and were administered in 0.1 ml on the dorsal skin area (2 cm×2 cm).
(§2) Male and female Sprague-Dawley rats [Crl: CD (SD)Br] weighing 225-250 g and 175-200 g, respectively, were obtained from Charles River Canada Inc. (St-Constant, Québec) and housed 2 per cage under a regimen of 14 h of light/da, (lights on at 07:15 h). Animals received Purina rat chow and water ad libitum. The animal studies were conducted to the “Guideline for Care and use of Experimental Animals”.
(§3) The animals were randomly divided into the indicated groups (8 and 10 rats per group for subcutaneous and topical administration, respectively). The animals of the appropriate groups were bilaterally ovariectomized (OVX) or orchiectomized (ORCH) under ether anesthesia while other rats were used as intact controls.
(§4) Seven days after starting treatment or approximately 12 h after last administration of the steroid, the animals were killed by decapitation. Blood samples were collected individually and serum was frozen at −20° C. until assayed. Uteri, ovaries, ventral prostates, dorsal prostates and seminal vesicles were immediately removed, freed from connective and adipose tissue, weighed, frozen in liquid nitrogen, and stored at −80° C. until assayed. Three rats from the indicated treatment groups were perfused with paraformaldehyde for in situ hybridization.

[2] = system: ovariectomized rats; assay: Serum LH concentration in ovariectomized rats, percutaneous administration; assay type: in vivo, rat; conditions: OVX rats
Experimental: as §1, §2, §3, §4
Serum LH was measured by double-antibody radioimmunoassay using rat hormones (LH-I-6 for iodination; LH-RP-2 as standard), and the rabbit antisera anti-r-LH-S-8, generously supplied by the National Pituitary Program, Baltimore, USA.
(§5) Radioimmunoassay data were analyzed using a program based on model II of Rodbard and Lewald (Rodbard, 1974). Plasma steroid levels are shown as the means±SEM of duplicate determinations of individual samples. In situ hybridization data were obtained as follows: for each prostatic tissue section, 20 randomly selected areas measuring 0.25 mm^2 (excluding acinar lumen) were analyzed using an Image Research Analysis System (Amersham, Arlington Heights, Ill.) and the mean optical density value for each section was calculated. Data are shown as the means±SEM of 20 readings from 6-8 prostatic sections originating from ventral 3 prostates. Statistical significance was measured according to the multiple range test of Duncan-Kramer (Kramer, 1956).

[3] = Serum steroid concentrations (DHEA, 5-DIOL, 4-dione, testosterone, DHT) in ovariectomized rats, percutaneous administration; conditions: for serum levels of 5-DIOL, 5-DIOL versus DHEA: higher doses; for concentration at 12 h: female, Sprague-Dawley, rat, in vivo
Experimental: as §1, §1, §1
Intact animals are used as additional controls. The compounds were dissolved in 50% ethanol-50% propylene glycol and were administered in 0.1 ml on the dorsal skin in area (2 cm×2 cm).
as §1, §2, §3, §4
Steroid extraction, Ethanol (5 ml) was added to 1 ml serum and centrifugation at 2000×g was preformed for 15 min. The resulting pellet was further extracted with 2 ml ethanol and, after a second centrifugation at 2000×g for 15 min, the two supernatants were combined. The suspension was recentrifuged as described above and the supernatant was decanted and combined with the previously obtained ethanol extracts. The organic solvent was then evaporated under nitrogen and the residue was dissolved in 1 ml water: methanol (95:5, v/v). The C-18 columns (Bound-Elut, Amersham, Bucks, U.K.) were conditioned by passing consecutively 10 ml methanol, 10 ml water and 10 ml methanol/water (5:95, v/v). The extracts solubilized in water:methanol (95:5, v/v) were then deposited on the C-18 columns. After washing the columns with 2 ml water:methanol (95:5, v/v) and 5 ml methanol:water (50:50, v/v), 5 ml methanol:water (85:15, v/v) were added to eluate the non-conjugated steroids.
Chromatography on Sephadex LH-20 columns (Pharmacia, Uppsala, Sweden) was performed as previously described (Bélanger et al., 1988). In brief, steroids were solubilized in 1 ml isooctane/toluene/methanol (90:5:5, v:v:v) and deposited on the LH-20 columns. Fractions were collected and, after evaporation of the organic solvent, the concentration of the various steroids was determined by radioimmunoassay as previously described (Bélanger et al., 1980; Bélanger et al., 1988; Bélanger et al., 1990)
Radioimmunoassay data were analyzed using a program based on model II of Rodbard and Lewald (Rodbard, 1974). Plasma steroid levels are shown as the means±SEM of duplicate determinations of individual samples.

[4] = system: orchiectomized rats; assay: Ventral prostate and seminal vesicle weight in orchiectomized rats, percutaneous administration; assay type: in vivo, rat
Experimental: (§6) Intact animals are used as additional controls.
as §6, §2, §3, §4

[5] = system: ovariectomized rats; assay: Uterine weight in ovariectomized rats, subcutaneous administration twice daily for 7 days; assay type: in vivo, rat; conditions: for dose giving half-maximal stimulation of uterine weight: OVX rats
Experimental: as §6, §2, §3, §4

[6] = system: orchiectomized rats; assay: Prostate and seminal vesicle weight in orchiectomized rats, subcutaneous administration; assay type: in vivo, rat; conditions: ORCH rats; for ED50 of maximal effect on prostate weight: half of each compound's own maximal effect
Experimental: as §6, §6, §2, §3, §4

[7] = system: human mammary tumor ZR-75-1 cells; conditions: concentrations within range of plasma levels in adult women; cited from earlier work
[8] = system: MCF-7 cells; conditions: cited from earlier work
[9] = system: mRNAs encoding the C1 and C3 components of prostatic binding protein; assay: PBP-C1 and PBP-C3 mRNA in the ventral prostate of orchiectomized rats, percutaneous administration; assay type: in vivo, rat; conditions: ORCH rats, depending on dosage
Experimental: as §6, §6, §2
The animals were randomly divided into the indicated groups (8 and 10 rats per group for subcutaneous and topical administration, respectively). […]
as §5, with “Plasma steroid levels are shown as the means±SEM of duplicate determinations of individual samples.” left out

Structure (SMILES)	effect on uterine weight ([1]; 10 mg and 30 mg doses)	maximal reversal of the inhibitory effect of ovariectomy on uterine weight [1] [%]	effect on uterine weight ([1]; 1 and 3 mg doses)	inhibition of serum LH below the value in intact control animals ([2]; 30 mg dose)	inhibition of serum LH below the value in intact control animals ([2]; 100 mg dose) [%]	serum levels of 5-DIOL, 5-DIOL versus DHEA ([3]; percutaneous, OVX rats)	dose giving half-maximal stimulation of uterine weight [5] [mg]	ED50, dose giving half-maximal reversal of the effect of orchiectomy on prostate weight [6] [mg]	half-maximal reversal of the effect of orchiectomy on seminal vesicle weight (dose) [6] [mg]	ED50 of maximal effect on prostate weight [6] [mg]	further results
C[C@]12CC[C@H]3[C@@H](CC=C4C[C@@H](O)CC[C@@]43C)[C@@H]1CC[C@@H]2O [5-DIOL, androst-5-ene-3β,17β-diol]	comparable stimulation	52	no significant effect	approximately 35%	~70	no significant difference	0.5	1	~1.2	1.2	serum LH ([2]; 10 mg dose): 0.86 ± 0.17 ng/mL; serum DHEA level ([3]; 3, 10, 30 and 100 mg dosages, percutaneous, OVX rats): relatively constant but low level; levels of serum DHT ([3]; across the dosage range, percutaneous, OVX rats): substantially constant and relatively low; serum levels of 5-DIOL compared with the other steroid ([3]; lower doses, 1 and 3 mg, percutaneous, OVX rats): higher levels; reversal of the effect of castration on ventral prostate weight ([4]; 15 mg dose, percutaneous): 50%; reversal of the effect of 1-week ovariectomy on uterine weight ([5]; 0.3 mg): 90%; cell proliferation [7]: enhances cell proliferation; progesterone receptor levels [7]: enhances; estrogen-dependent synthesis of the 52 kDa glycoprotein [8]: increases
C[C@]12CC[C@H](O)CC1=CC[C@@H]1[C@@H]2CC[C@]2(C)C(=O)CC[C@@H]12 [DHEA, dehydroepiandrosterone]	comparable stimulation	42	no significant effect	approximately 35%	~70	no significant difference	~2.5	1	~2.5	2.5	inhibitory effect on serum LH ([2]; 10 mg dose): 61%; concentration at 12 h ([3]; 3 mg): 1.74 ± 0.3 nM; concentration at 12 h ([3]; 30 mg): 12.9 ± 3.69 nM; concentration at 12 h ([3]; 100 mg): 39.2 ± 6.5 nM; reversal of the inhibitory effect of orchiectomy on ventral prostate weight ([4]; 10 mg dose, percutaneous): about 75%; androgenic activity of DHEA relative to 5-DIOL where equivalent estrogenic effects are provided ([4]; percutaneous administration): two to three times more androgenic activity; potency of DHEA relative to 5-DIOL in increasing seminal vesicle weight ([4]; percutaneous, ORCH rats): 1 fold; stimulation of PBP-C1 and PBP-C3 mRNA levels by DHEA relative to 5-DIOL [9]: two to five times the effect; also recorded: two to five times more potent; effect on uterine weight ([5]; 0.3 mg): no significant effect
